Marks after values point to notes of the source that are not given here.
Columns and labels:
[1] = XRPD characterization of freeze-dried solid dispersions, physical mixtures and starting material; type: physicochemical; conditions: as prepared; solid form of psilocybin (PY) in freeze-dried dispersion, physical mixture or starting material
Protocol: The samples were prepared in silicon low background holders using light manual pressure to keep the sample surface flat and level with the reference surface of the sample holder. The single crystal Si low background holder has a circular recess (10 mm diameter and about 0.2 mm depth) that holds the sample.
The Rigaku Smart-Lab diffraction system used was configured for Bragg-Brentano reflection geometry using a line source X-ray beam. The Bragg-Brentano geometry was controlled by passive divergence and receiving slits with the sample itself acting as the focusing component for the optics. The figures were created using PlotMon V2.1.1.0.
High-resolution XRPD analysis was performed using Rigaku Smart-Lab diffraction system configured for Debye-Scherrer transmission geometry. The Debye-Scherrer convergent beam geometry utilizes a curved x-ray mirror to focus the incident beam through the sample and onto the detector plane. The axial divergence of the X-ray beam was controlled by 5.0° Soller slits in both the incident and diffracted beam paths.
Freeze-dried solid dispersions of Examples 1-5, and corresponding Reference Examples, were characterized using X-ray powder diffraction (XRPD).

[2] = Characterization and 40° C. closed-vial stability of spray dried solid dispersions (XRPD, mDSC, TGA); type: physicochemical; conditions: t = 0, spray dried
Protocol: X-ray power diffraction (XRPD): XRPD patterns were collected on a Bruker AXS D2 diffractometer using Cu Kα radiation (30 kV, 10 mA), […], using a LynxEye detector from 5-42 °2θ.
The details of the data collection are: • Angular range: 5 to 42 °2θ • Step size: 0.024° 2θ • Collection time: 0.1 seconds per step.
Samples were run under ambient conditions and prepared as flat plate specimens using powder without grinding. Approximately 1-2 mg of the sample was lightly pressed on a silicon wafer to obtain a flat surface.
Modulated differential scanning calorimetry (mDSC): TOPEM® is a temperature modulated DSC method which differs from conventional DSC in allowing the total heat flow to be separated into reversing and non-reversing heat flow components. Such techniques help distinguish between processes or transitions that overlap or lie very close to one another. The glass transition temperature (Tg) was determined from the reversible heatflow component.
TOPEM® DSC data were collected on a Mettler DSC 3+ equipped with a 34 position auto-sampler. The instrument was calibrated for energy and temperature using certified indium. Typically, 3-5 mg of each sample, in a pin-holed aluminium pan, was heated at 2 K·min^−1 from 30° C. to 220° C. with a pulse height of 0.64 K and a pulse width 15-30 sec. A nitrogen purge at 50 mL·min^−1 was maintained over the sample. […]

[3] = cited from earlier work

Q: Which “XRPD Results” value [1] does the source give for CN(C)CCc1c[nH]c2cccc(OP(=O)(O)O)c12 [Crystalline PY starting material, 3-(2-(dimethylamino)ethyl)-1H-indol-4-yl dihydrogen phosphate] here?
A: crystalline PY (methanol solvate)^a

Q: For CN(C)CCc1c[nH]c2cccc(OP(=O)(O)O)c12 [Psilocybin (PY), 3-(2-(dimethylamino)ethyl)-1H-indol-4-yl dihydrogen phosphate], which XRPD [2] is on record?
A: Amorphous

Q: And the Tg ([2]; mDSC)?
A: 161 °C

Q: Which “Tg (midpoint)” value ([3]; reported by Greenan et al.) does the source give for CN(C)CCc1c[nH]c2cccc(OP(=O)(O)O)c12 [amorphous psilocybin] here?
A: 163 °C

Q: And the “physical stability of the amorphous form without polymer” value ([3]; variety of stress conditions, Greenan et al.)?
A: known to crystallize

Reference: patent publication US20250360148A1, “SOLID DISPERSIONS OF PSILOCYBIN” (Cybin IRL Limited, priority 2022, published 2025)
